Measured values as given in PubChem BioAssay AID330 (DTP/NCI, 2004).
Several values for one entry are separate records, joined by “and”; a condition that tells them apart may be missing. Identical values can stand only once. Toxic doses and inconclusive results are not listed. Rule for the calls: active = survival T/C of 150% or more; inactive = T/C below 125% in these data.

Test system: P388 leukemia ip, CD2F1 mice, survival T/C
Test: NCI In Vivo Anticancer Drug Screen. Data for tumor model P388 Leukemia (intraperitoneal) in CD2F1 (CDF1) mice
Details: endpoint: median survival time, higher = longer survival
Outline: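 Mice carrying the transplanted tumor received test compound or vehicle. Survival was recorded in each group, and the value is the treated-group measurement divided by that of the vehicle-treated control group.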

[1] = dose: 100.0 mg/kg/injection, schedule: Q01DX005 (ip), vehicle: saline with Tween-80
[2] = dose: 60.0 mg/kg/injection, schedule: Q01DX005 (ip), vehicle: saline with Tween-80
[3] = dose: 120.0 mg/kg/injection, schedule: Q01DX005 (ip), vehicle: saline with Tween-80
[4] = dose: 25.0 mg/kg/injection, schedule: Q01DX005 (ip), vehicle: Klucel (hydroxypropylcellulose) (HPC)
[5] = dose: 50.0 mg/kg/injection, schedule: Q01DX005 (ip), vehicle: Klucel (hydroxypropylcellulose) (HPC)
[6] = dose: 100.0 mg/kg/injection, schedule: Q01DX005 (ip), vehicle: Klucel (hydroxypropylcellulose) (HPC)
[7] = dose: 200.0 mg/kg/injection, schedule: Q01DX005 (ip), vehicle: Klucel (hydroxypropylcellulose) (HPC)
[8] = dose: 200.0 mg/kg/injection, schedule: Q01DX009 (ip), vehicle: Klucel (hydroxypropylcellulose) (HPC)

Measured: T/C

Cc1cc(C)c(C#N)c(SCC#CCSc2nc(C)cc(C)c2C#N)n1
inactive: dose: 1.5 mg/kg/injection, schedule: Q01DX005 (ip), vehicle: saline with Tween-80 103 % of control | dose: 3.0 mg/kg/injection, schedule: Q01DX005 (ip), vehicle: saline with Tween-80 103 % of control | dose: 6.0 mg/kg/injection, schedule: Q01DX005 (ip), vehicle: saline with Tween-80 94 % of control | dose: 6.25 mg/kg/injection, schedule: Q01DX005 (ip), vehicle: saline with Tween-80 89 % of control | [1] 91 % of control | dose: 200.0 mg/kg/injection, schedule: Q01DX005 (ip), vehicle: saline with Tween-80 91 % of control

Cn1c2cc3ccccc3cc2nc2cc3c(cc21)c(Cl)c(=O)c1ccccc13
inactive: dose: 50.0 mg/kg/injection, schedule: Q01DX009 (ip), vehicle: saline with Tween-80 109 % of control | dose: 100.0 mg/kg/injection, schedule: Q01DX009 (ip), vehicle: saline with Tween-80 99 % of control | dose: 200.0 mg/kg/injection, schedule: Q01DX009 (ip), vehicle: saline with Tween-80 100 % of control

O=C1C=CC(=O)N1c1ccccc1[N+](=O)[O-]
inactive: dose: 6.0 mg/kg/injection, schedule: Q01DX009 (ip), vehicle: saline with Tween-80 91 % of control

Nc1nc2n(n1)C(=O)C(=O)N2
inactive: dose: 50.0 mg/kg/injection, schedule: Q04DX003 (ip), vehicle: saline with Tween-80 100 % of control | dose: 100.0 mg/kg/injection, schedule: Q04DX003 (ip), vehicle: saline with Tween-80 106 % of control | dose: 200.0 mg/kg/injection, schedule: Q04DX003 (ip), vehicle: saline with Tween-80 103 % of control | dose: 400.0 mg/kg/injection, schedule: Q04DX003 (ip), vehicle: saline with Tween-80 103 % of control

CCOc1cc2c(cc1C(CC(=O)O)c1ccc(OC)cc1)OCO2 (centres undefined)
inactive: dose: 50.0 mg/kg/injection, schedule: Q01DX005 (ip), vehicle: distilled water + Tween-80 101 % of control | dose: 100.0 mg/kg/injection, schedule: Q01DX005 (ip), vehicle: distilled water + Tween-80 92 % of control | dose: 200.0 mg/kg/injection, schedule: Q01DX005 (ip), vehicle: distilled water + Tween-80 90 % of control

Nc1nc(N)c(NS(=O)(=O)c2ccccc2)c(=O)[nH]1
inactive: [2] 108 % of control | [3] 100 % of control | dose: 240.0 mg/kg/injection, schedule: Q01DX005 (ip), vehicle: saline with Tween-80 105 % of control

CN1C(=O)[C@@H]2OCCOCCO[C@H]3C(=O)N(C)C(=O)[C@@H]3OCCOCCO[C@H]2C1=O
inactive: [4] 112 % of control | [5] 106 % of control | [6] 87 % of control | [7] 96 % of control

Cc1ccc2c(N=Nc3ccc(C(=N)N)cc3)ccc(O)c2n1
inactive: [4] 104 % of control | [5] 113 % of control | [6] 111 % of control | [7] 105 % of control

CC(C)(C)[Si](C)(C)CC#C[Si](C)(C)C
inactive: dose: 50.0 mg/kg/injection, schedule: Q01DX005 (ip), vehicle: saline with Tween-80 104 % of control | [1] 103 % of control

C(=C\c1ccccc1)/CN1CCN(C(c2ccccc2)c2ccccc2)CC1
inactive: dose: 50.0 mg/kg/injection, schedule: Q01DX009 (ip), vehicle: Klucel (hydroxypropylcellulose) (HPC) 97 % of control | dose: 100.0 mg/kg/injection, schedule: Q01DX009 (ip), vehicle: Klucel (hydroxypropylcellulose) (HPC) 94 % of control | [8] 90 % of control

C#CC1=CC(=O)C(OC)=CC1=O
inactive: dose: 7.5 mg/kg/injection, schedule: Q01DX005 (ip), vehicle: Klucel (hydroxypropylcellulose) (HPC) 99 % of control | dose: 15.0 mg/kg/injection, schedule: Q01DX005 (ip), vehicle: Klucel (hydroxypropylcellulose) (HPC) 100 % of control

COC(=O)C(COS(=O)(=O)c1ccc(C)cc1)NC(=O)OCc1ccc(OC)cc1 (centres undefined)
inactive: dose: 12.5 mg/kg/injection, schedule: Q01DX009 (ip), vehicle: water 98 % of control | dose: 25.0 mg/kg/injection, schedule: Q01DX009 (ip), vehicle: water 95 % of control | dose: 50.0 mg/kg/injection, schedule: Q01DX009 (ip), vehicle: water 89 % of control | dose: 100.0 mg/kg/injection, schedule: Q01DX009 (ip), vehicle: water 91 % of control | dose: 200.0 mg/kg/injection, schedule: Q01DX009 (ip), vehicle: water 91 % of control

CC(=O)n1c2ccccc2c2c(C)c3cnccc3c(C)c21
active: dose: 50.0 mg/kg/injection, schedule: Q04DX002 (ip), vehicle: saline with Tween-80 152 % of control | dose: 100.0 mg/kg/injection, schedule: Q04DX002 (ip), vehicle: saline with Tween-80 171 % of control | dose: 200.0 mg/kg/injection, schedule: Q04DX002 (ip), vehicle: saline with Tween-80 196 % of control
inactive: dose: 12.5 mg/kg/injection, schedule: Q04DX002 (ip), vehicle: saline with Tween-80 114 % of control | dose: 25.0 mg/kg/injection, schedule: Q04DX002 (ip), vehicle: saline with Tween-80 124 % of control

CNC(=O)OCc1c(Cl)nc2sccn12
inactive: dose: 100.0 mg/kg/injection, schedule: Q01DX001 (ip), vehicle: Klucel (hydroxypropylcellulose) (HPC) 109 % of control | dose: 200.0 mg/kg/injection, schedule: Q01DX001 (ip), vehicle: Klucel (hydroxypropylcellulose) (HPC) 100 % of control | dose: 400.0 mg/kg/injection, schedule: Q01DX001 (ip), vehicle: Klucel (hydroxypropylcellulose) (HPC) 100 % of control

CC1(C(=O)O)CCC2(C)CCC3(C)C(=CC(=O)C4C5(C)CCC(OC6OC(C(=O)O)C(O)C(O)C6OC6OC(C(=O)O)C(O)C(O)C6O)C(C)(C)C5CCC43C)C2C1 (centres undefined)
inactive: dose: 50.0 mg/kg/injection, schedule: Q01DX005 (ip), vehicle: saline 99 % of control | dose: 100.0 mg/kg/injection, schedule: Q01DX005 (ip), vehicle: saline 97 % of control | dose: 200.0 mg/kg/injection, schedule: Q01DX005 (ip), vehicle: saline 103 % of control

C/C=C(\C(=O)OC)C1CC2OC(=O)C1(C=O)C13CCNC21N(C)c1ccccc13 (centres undefined)
inactive: dose: 4.5 mg/kg/injection, schedule: Q01DX005 (ip), vehicle: saline + Tween-80 + alcohol 104 % of control | dose: 9.5 mg/kg/injection, schedule: Q01DX005 (ip), vehicle: saline + Tween-80 + alcohol 98 % of control | dose: 18.0 mg/kg/injection, schedule: Q01DX005 (ip), vehicle: saline + Tween-80 + alcohol 104 % of control | dose: 38.0 mg/kg/injection, schedule: Q01DX005 (ip), vehicle: saline + Tween-80 + alcohol 98 % of control

CC(C)CC1C(=O)N2CCCC2C2(O)OC(NC(=O)C3C=C4c5cccc6[nH]cc(c56)CC4N(C)C3)(C(C)C)C(=O)N12 (centres undefined)
inactive: dose: 2.5 mg/kg/injection, schedule: Q01DX009 (ip), vehicle: Klucel (hydroxypropylcellulose) (HPC) 91 % of control | dose: 5.0 mg/kg/injection, schedule: Q01DX009 (ip), vehicle: Klucel (hydroxypropylcellulose) (HPC) 90 % of control | dose: 20.0 mg/kg/injection, schedule: Q01DX009 (ip), vehicle: Klucel (hydroxypropylcellulose) (HPC) 99 % of control | dose: 40.0 mg/kg/injection, schedule: Q01DX009 (ip), vehicle: Klucel (hydroxypropylcellulose) (HPC) 101 % of control

CSc1nccc2ccccc12
inactive: dose: 12.5 mg/kg/injection, schedule: Q01DX009 (ip), vehicle: other 96 % of control | dose: 25.0 mg/kg/injection, schedule: Q01DX009 (ip), vehicle: other 93 % of control | dose: 50.0 mg/kg/injection, schedule: Q01DX009 (ip), vehicle: other 118 % of control

CC(=O)Nc1nc(C)c(CCCNS(=O)(=O)c2ccc([N+](=O)[O-])cc2)c(=O)[nH]1
inactive: dose: 15.0 mg/kg/injection, schedule: Q01DX005 (ip), vehicle: saline with Tween-80 100 % of control | dose: 30.0 mg/kg/injection, schedule: Q01DX005 (ip), vehicle: saline with Tween-80 101 % of control | [2] 93 % of control and 95 % of control

Cc1ncn(-c2ccccc2)c(=O)c1N=Cc1ccccc1
inactive: [2] 86 % of control | [3] 87 % of control

N#CC1=C(C#N)Sc2nc3cc(Cl)ccc3nc2S1
inactive: dose: 6.25 mg/kg/injection, schedule: Q01DX009 (ip), vehicle: saline 109 % of control | dose: 12.5 mg/kg/injection, schedule: Q01DX009 (ip), vehicle: saline 115 % of control and 95 % of control | dose: 25.0 mg/kg/injection, schedule: Q01DX009 (ip), vehicle: saline 108 % of control | dose: 50.0 mg/kg/injection, schedule: Q01DX009 (ip), vehicle: saline 115 % of control

CC(C)CCCC(C)C1CCC2C3CCC4CC(=O)C(C5(O)C(=O)Nc6ccccc65)CC4(C)C3CCC12C (centres undefined)
inactive: dose: 6.25 mg/kg/injection, schedule: Q01DX009 (ip), vehicle: Klucel (hydroxypropylcellulose) (HPC) 95 % of control | dose: 12.5 mg/kg/injection, schedule: Q01DX009 (ip), vehicle: Klucel (hydroxypropylcellulose) (HPC) 95 % of control | [8] 90 % of control
